pEC50, pIC50: −log10 of the molar value.
Key:
[1] = In vitro anti-HIV activity against HIV-1 in human peripheral blood mononuclear (PBM) cells; format: functional
[2] = tested on: Vero; assay: Cytotoxic activity against HIV-1 in rapidly dividing vero cells; format: functional, cell-based; settings: Chlorocebus sabaeus
[3] = Cytotoxic activity against HIV-1 in peripheral blood mononuclear (PBM) cells; format: functional; settings: Homo sapiens

Row | SMILES | pEC50 [1] | pIC50 [2] | pIC50 [3]
1 | Cc1cn([C@H]2O[C@@H](CO)C(O[Si](C)(C)C(C)(C)C)C2(F)F)c(=O)[nH]c1=O (single isomer, unassigned) | < 4.00 | < 4.00 | < 4.00
2 | CC(C)(C)[Si](C)(C)OC1[C@H](CO)O[C@H](n2ccc(N)nc2=O)C1(F)F (single isomer, unassigned) | < 4.00 | < 4.00 | < 4.00
3 | Cc1cn([C@H]2C[C@H](N=[N+]=[N-])[C@@H](CO)O2)c(=O)[nH]c1=O [ZIDOVUDINE] | 8.40 | – | < 4.00

Continued, in another order:

Row | pEC50 [1] | SMILES | pIC50 [2] | pIC50 [3]
4 | < 4.00 | Nc1ncnc2c1ncn2[C@@H]1O[C@@H](CO)C(O)C1(F)F (single isomer, unassigned) | < 4.00 | < 4.00
5 | 5.47 | Nc1ncnc2c1ncn2[C@H]1O[C@@H](CO)C(O)C1(F)F (single isomer, unassigned) | < 4.00 | < 4.00
6 | < 4.00 | CC(C)(C)[Si](C)(C)OC1[C@H](CO)O[C@@H](n2ccc(N)nc2=O)C1(F)F (single isomer, unassigned) | < 4.00 | < 4.00
7 | < 4.00 | Cc1cn([C@@H]2O[C@@H](CO)C(O[Si](C)(C)C(C)(C)C)C2(F)F)c(=O)[nH]c1=O (single isomer, unassigned) | < 4.00 | < 4.00

Reference: ChEMBL document CHEMBL1128870, “Synthesis and anti-HIV activities of 2-deoxy-2,2-difluoro--L-ribofuranosyl-pyrimidine and -purine nucleosides” (Bioorg Med Chem Lett, 1995)
